Assay results as given in ChEMBL document CHEMBL1201862, “PubChem BioAssay data set” (2004).
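Five concentrations, 48 hours, 96-well plates. GI50 marks 50% less growth.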 Calls of active or inactive are those of the source. Cut-off read from the data, not from the text of the source: active = GI50 up to about 1.1 µM and inactive = higher.

Key:
Assay in all cases: growth of human tumour cells (NCI), 48 h
SNB-19 = system: SNB-19
K562 = system: K562
HOP-92 = system: HOP-92
OVCAR-3 = system: OVCAR-3
786-0 = system: 786-0
A498 = system: A498
COLO 205 = system: COLO 205
SK-MEL-28 = system: SK-MEL-28
SR = system: SR
UACC-62 = system: UACC-62
RPMI-8226 = system: RPMI-8226
SF-539 = system: SF-539
IGROV-1 = system: IGROV-1
DU-145 = system: DU-145
SF-295 = system: SF-295
LOX IMVI = system: LOX IMVI
MCF7 = system: MCF7
SN12C = system: SN12C
NCI-H23 = system: NCI-H23
HL-60 = system: HL-60

SMILES | GI50 (SNB-19) | GI50 (K562) | GI50 (HOP-92) | GI50 (OVCAR-3) | GI50 (786-0) | GI50 (A498) | GI50 (COLO 205) | GI50 (SK-MEL-28) | GI50 (SR) | GI50 (UACC-62) | GI50 (RPMI-8226) | GI50 (SF-539) | GI50 (IGROV-1) | GI50 (DU-145) | GI50 (SF-295) | GI50 (LOX IMVI) | GI50 (MCF7) | GI50 (SN12C) | GI50 (NCI-H23) | GI50 (HL-60)
O=S1(=O)CCN(Cc2ccccn2)CC1 | > 100 µM (inactive) | > 100 µM (inactive) | > 100 µM (inactive) | 4.49 µM (inactive) | > 100 µM (inactive) | > 100 µM (inactive) | > 100 µM (inactive) | > 100 µM (inactive) | > 100 µM (inactive) | > 100 µM (inactive) | > 100 µM (inactive) | > 100 µM (inactive) | > 100 µM (inactive) | > 100 µM (inactive) | > 100 µM (inactive) | > 100 µM (inactive) | > 100 µM (inactive) | > 100 µM (inactive) | > 100 µM (inactive) | 
O=C(/C=C/c1ccc2c(c1)OCO2)NCc1ccco1 | 50.9 µM (inactive) | 82.6 µM (inactive) | 92.5 µM (inactive) | 82.2 µM (inactive) | > 100 µM (inactive) | 84.3 µM (inactive) | > 100 µM (inactive) | > 100 µM (inactive) | 5.09 µM (inactive) | 74.6 µM (inactive) |  | 64.9 µM (inactive) | 56 µM (inactive) | > 100 µM (inactive) | > 100 µM (inactive) | > 100 µM (inactive) | 39.7 µM (inactive) | > 100 µM (inactive) | > 100 µM (inactive) | 
COc1ccc(C(=O)CC(c2ccc(OC)c(OC)c2)c2c(O)oc3ccccc3c2=O)cc1OC (stereo not given) | > 100 µM (inactive) | > 100 µM (inactive) | 28.4 µM (inactive) | > 100 µM (inactive) | > 100 µM (inactive) |  | > 100 µM (inactive) | > 100 µM (inactive) | > 100 µM (inactive) | > 100 µM (inactive) | 95.1 µM (inactive) | > 100 µM (inactive) | > 100 µM (inactive) | > 100 µM (inactive) | > 100 µM (inactive) | > 100 µM (inactive) | > 100 µM (inactive) | > 100 µM (inactive) | > 100 µM (inactive) | > 100 µM (inactive)
Oc1nc2cc3nc(O)c(O)nc3cc2nc1O | > 100 µM (inactive) | > 100 µM (inactive) |  | > 100 µM (inactive) | > 100 µM (inactive) | > 100 µM (inactive) | > 100 µM (inactive) | > 100 µM (inactive) | > 10 µM (inactive) | > 100 µM (inactive) | > 100 µM (inactive) | > 100 µM (inactive) | > 100 µM (inactive) | > 100 µM (inactive) | > 100 µM (inactive) | > 100 µM (inactive) | > 100 µM (inactive) | > 100 µM (inactive) | > 100 µM (inactive) | > 100 µM (inactive)
CCNC1=C(NC(=O)c2ccccc2)C(=O)c2ccccc2C1=O | 83.2 µM (inactive) | 45.4 µM (inactive) | 55.6 µM (inactive) | 25.1 µM (inactive) | > 100 µM (inactive) |  | 16.6 µM (inactive) | 39.3 µM (inactive) | 40.2 µM (inactive) | 20 µM (inactive) | > 100 µM (inactive) | 48.8 µM (inactive) | 46.9 µM (inactive) | 57 µM (inactive) | 32.4 µM (inactive) |  | 32.1 µM (inactive) | 42.8 µM (inactive) | 36.7 µM (inactive) | 36.3 µM (inactive)
O=c1[nH]nc(-c2ccccc2)n1-c1cccc([N+](=O)[O-])c1 | > 100 µM (inactive) | > 100 µM (inactive) | > 100 µM (inactive) | > 100 µM (inactive) | > 100 µM (inactive) | > 100 µM (inactive) | > 100 µM (inactive) | > 100 µM (inactive) | > 100 µM (inactive) | > 100 µM (inactive) | > 100 µM (inactive) | > 100 µM (inactive) | > 100 µM (inactive) | > 100 µM (inactive) | > 100 µM (inactive) | > 100 µM (inactive) | > 100 µM (inactive) | > 100 µM (inactive) | > 100 µM (inactive) | 
Cc1cccc(Br)[n+]1[O-] | > 100 µM (inactive) | > 100 µM (inactive) | > 100 µM (inactive) | > 100 µM (inactive) | > 100 µM (inactive) |  | > 100 µM (inactive) | > 100 µM (inactive) | > 100 µM (inactive) | > 100 µM (inactive) | > 100 µM (inactive) | > 100 µM (inactive) | > 100 µM (inactive) | > 100 µM (inactive) | > 100 µM (inactive) | > 100 µM (inactive) | > 100 µM (inactive) | 97.1 µM (inactive) | > 100 µM (inactive) | 
COc1c(C)c(C/C=C(\C)CCCCO)c(OC)c(OC)c1OC | > 100 µM (inactive) | 24.4 µM (inactive) | > 100 µM (inactive) | > 100 µM (inactive) | > 100 µM (inactive) |  | > 100 µM (inactive) |  | 95.7 µM (inactive) | > 100 µM (inactive) | 10.3 µM (inactive) | > 100 µM (inactive) | 45.2 µM (inactive) | > 100 µM (inactive) | 48.6 µM (inactive) | 25.5 µM (inactive) | > 100 µM (inactive) | 28.7 µM (inactive) | > 100 µM (inactive) | 
NC(=O)NCCCC(NC(=O)OCCCCCn1ccc(=O)[nH]c1=O)C(=O)O (stereo not given) | > 100 µM (inactive) | > 100 µM (inactive) | > 100 µM (inactive) | > 100 µM (inactive) | > 100 µM (inactive) |  | > 100 µM (inactive) | > 100 µM (inactive) | > 100 µM (inactive) | > 100 µM (inactive) | > 100 µM (inactive) | > 100 µM (inactive) | 23.1 µM (inactive) | > 100 µM (inactive) | > 100 µM (inactive) | > 100 µM (inactive) | > 100 µM (inactive) | > 100 µM (inactive) | > 100 µM (inactive) | > 100 µM (inactive)
FC1(F)ON2CCc3ccccc3C2[C@H]1c1ccccc1 (stereo not given in full) | > 10 µM (inactive) | > 10 µM (inactive) |  | 21 µM (inactive) | 26.4 µM (inactive) | > 10 µM (inactive) | > 10 µM (inactive) | > 10 µM (inactive) | > 10 µM (inactive) | > 10 µM (inactive) | > 10 µM (inactive) | 91.8 µM (inactive) | > 10 µM (inactive) | > 10 µM (inactive) | > 10 µM (inactive) | 91 µM (inactive) | > 10 µM (inactive) | > 10 µM (inactive) | > 10 µM (inactive) | > 10 µM (inactive)
CC(=O)NC1C(OCc2ccccc2)OC(CO)C(O)C1OCC(=O)NC(C)C(=O)NC(CCC(=O)OCCNC(=O)c1cccc2cc3ccccc3nc12)C(N)=O (stereo not given) | 31.4 µM (inactive) | 39.1 µM (inactive) | 23.2 µM (inactive) | 20.5 µM (inactive) | 18.7 µM (inactive) |  | 21.3 µM (inactive) | 19.4 µM (inactive) | 8.22 µM (inactive) | 15.7 µM (inactive) | 1.33 µM (inactive) |  | 17.8 µM (inactive) | 11.3 µM (inactive) | 21.4 µM (inactive) | 11.2 µM (inactive) | 25.2 µM (inactive) | 22.3 µM (inactive) | 20.7 µM (inactive) | 22.2 µM (inactive)
CC(=O)OCC12CN(C#N)C3C4COC(CC41)C1(C(=O)N(C)c4ccccc41)C32 (stereo not given) |  | 14.8 µM (inactive) | 19.7 µM (inactive) | 3.58 µM (inactive) | 28.3 µM (inactive) |  | 16.7 µM (inactive) | 19.2 µM (inactive) | 14.6 µM (inactive) | 22.6 µM (inactive) | 9.73 µM (inactive) |  | 24 µM (inactive) | 15.4 µM (inactive) | 49.1 µM (inactive) | 20.6 µM (inactive) | 19.3 µM (inactive) | 20.3 µM (inactive) | 15.6 µM (inactive) | 11.2 µM (inactive)
CCN(CC)CCn1c(=O)c2ccccc2n2c3c(=O)n(C)c(=O)n(C)c3nc12 | 2.38 µM (inactive) | 2.21 µM (inactive) | 1.47 µM (inactive) | 4.06 µM (inactive) | 1.32 µM (inactive) |  | 1.55 µM (inactive) | 5.15 µM (inactive) | 0.177 µM (active) | 0.762 µM (active) | 1.6 µM (inactive) | 0.968 µM (active) | 2.11 µM (inactive) | 0.771 µM (active) | 1.24 µM (inactive) | 13.2 µM (inactive) | 0.337 µM (active) | 1.53 µM (inactive) | 2.07 µM (inactive) | 0.255 µM (active)
C#CC(O)/C=C/C(O)CCCC(O)CC#CC(O)C#CC(O)CCCC(O)/C=C/CCCC(=O)CCCCCCCCCCCCCCCC(O)C(O)C#CC(=O)O (stereo not given) | > 50 µM (inactive) | > 50 µM (inactive) | > 50 µM (inactive) |  | > 50 µM (inactive) |  | > 50 µM (inactive) | > 50 µM (inactive) | 19.3 µM (inactive) | > 50 µM (inactive) | > 50 µM (inactive) |  | 9.79 µM (inactive) | > 50 µM (inactive) | > 50 µM (inactive) | 10.3 µM (inactive) | > 50 µM (inactive) | > 50 µM (inactive) | > 50 µM (inactive) | 13.2 µM (inactive)
Cc1cc(N2CCCCC2)nc2ccc(Cc3ccc4nc(N5CCCCC5)cc(C)c4c3)cc12 | > 100 µM (inactive) | 32.1 µM (inactive) | > 100 µM (inactive) | > 100 µM (inactive) | > 100 µM (inactive) | > 100 µM (inactive) | 44.5 µM (inactive) | > 100 µM (inactive) | 24.2 µM (inactive) | > 100 µM (inactive) | 35.8 µM (inactive) | > 100 µM (inactive) | > 100 µM (inactive) | > 100 µM (inactive) | > 100 µM (inactive) | > 100 µM (inactive) | > 100 µM (inactive) | > 100 µM (inactive) | > 100 µM (inactive) | 
